{"source": "the pKa sets of Baltruschat and Czodrowski (2020)", "data": [{"conditions": "acidic group", "values": [{"smiles": "Cc1ccc(/C=C/C(=O)O)cc1", "pKa": 4.56}, {"smiles": "O=[N+]([O-])c1ccccc1/C=N/O", "pKa": 10.1}, {"smiles": "Cc1cc(C(=O)O)cs1", "pKa": 4.24}, {"smiles": "O=c1c2[nH]cnc2ncn1[O-]", "pKa": 10.1}, {"smiles": "CCOC(=O)C(Cc1ccc([N+](=O)[O-])cc1)C(C)=O", "note": "(centres undefined)", "pKa": 11.1}, {"smiles": "O=Cc1ccncc1O", "pKa": 6.77}, {"smiles": "Sc1cccnc1", "pKa": 7.01}, {"smiles": "C[C@H]1CC[C@H](C)C1C(=O)O", "pKa": 4.74}, {"smiles": "O=C([O-])C[NH+](CCNS(=O)(=O)c1ccc(CCBr)cc1)CC(=O)[O-]", "pKa": 7.75}, {"smiles": "O=C([O-])C(CO)[NH2+]Cc1cc([N+](=O)[O-])ccc1O", "note": "(centres undefined)", "pKa": 6.15}, {"smiles": "OC(O)=C1c2ccccc2-c2ccccc21", "pKa": 2.01}, {"smiles": "CCC1(C2=CCCCC2)C(=O)[N-]C(=S)NC1=O", "pKa": 11.8}, {"smiles": "CN1CC(=O)NC1=O", "pKa": 11.4}, {"smiles": "Nc1ncccc1O", "pKa": 9.5}, {"smiles": "O=[N+]([O-])c1ccccc1/C=N\\O", "pKa": 10.7}, {"smiles": "CCC[n+]1cccc2cc(O)ccc21", "pKa": 7.08}, {"smiles": "O=C(O)/C=C/CCl", "pKa": 4.14}, {"smiles": "CS(=O)c1cccc(O)c1", "note": "(centres undefined)", "pKa": 8.75}, {"smiles": "O=Cc1cccnc1C(=O)O", "pKa": 3.7}, {"smiles": "Cc1cc(C(C)C)cc(C)c1O", "pKa": 10.9}, {"smiles": "O=C1CCCC(=O)N1", "pKa": 11.4}, {"smiles": "C[C@]12CC[C@@H]3c4ccc(O)cc4CC[C@H]3[C@@H]1C[C@@H](O)[C@@H]2O", "pKa": 10.8}, {"smiles": "Cc1ccc(C(=O)C[n+]2cccc3c4ccccc4ccc32)cc1", "pKa": 11.7}, {"smiles": "Cc1cc(C)c(O)cc1C", "pKa": 10.6}, {"smiles": "CCOc1cccc(C(=O)O)c1", "pKa": 4.17}, {"smiles": "CC(C)(C)C(=O)NO", "pKa": 9.59}, {"smiles": "COc1ccc(NS(=O)(=O)c2ccccc2)cc1", "pKa": 8.88}, {"smiles": "CC[NH2+]C(C)C(=O)O", "note": "(centres undefined)", "pKa": 2.22}, {"smiles": "O=C(O)c1cccccc1=O", "pKa": 3.73}, {"smiles": "COc1cccc(C(=O)O)c1C", "pKa": 3.72}, {"smiles": "Oc1ccc(Cl)c2ccccc12", "pKa": 8.64}, {"smiles": "NNC(=O)c1ccccn1", "pKa": 11.8}, {"smiles": "ONc1ccccc1", "pKa": 10.7}, {"smiles": "N#CCc1ccc(C(=O)O)cc1", "pKa": 4.09}, {"smiles": "Cc1nc(C(=O)[O-])ccc1O", "pKa": 9.49}, {"smiles": "Nc1ccc(S(=O)(=O)Nc2cccnn2)cc1", "pKa": 7.06}, {"smiles": "O=S(=O)(Nc1cccc(C(F)(F)F)c1)c1ccccc1", "pKa": 7.63}, {"smiles": "NC(=S)C(N)=S", "pKa": 10.9}, {"smiles": "O=C1CCC(C2CCCCC2)C(=O)C1", "note": "(centres undefined)", "pKa": 5.5}, {"smiles": "CN(C)C(=O)n1nc(C(C)(C)C)nc1SCC(=O)O", "pKa": 3.49}, {"smiles": "O=C1NC(=O)[C@@H]2CCCC[C@H]12", "pKa": 9.72}, {"smiles": "CC(P)C(=O)O", "note": "(centres undefined)", "pKa": 4.15}, {"smiles": "O=C1CCC([O-])=C1O", "pKa": 12.9}, {"smiles": "CC1(C)N=C(C(=O)CC(=O)C(F)(F)F)C(C)(C)N1O", "pKa": 4.66}, {"smiles": "CCCCCCP(=O)(CCCCCC)CCCCCC", "pKa": 12.8}, {"smiles": "Cc1cc(Cl)cc(Cl)c1O", "pKa": 7.85}, {"smiles": "O=[N+]([O-])c1cccc(S)c1", "pKa": 5.24}, {"smiles": "CC1(C)CC(=O)CC1=O", "pKa": 4.2}, {"smiles": "COc1ccc(-c2nc3ncncc3[nH]2)c(OC)c1", "pKa": 9.92}, {"smiles": "O=C(O)[C@@H]1CC[C@H](C(=O)O)[Se]1", "pKa": 3.55}, {"smiles": "Cc1cc(O)n(-c2nc(O)c(C)c(C)[nH+]2)n1", "pKa": 5.5}, {"smiles": "CC1(C)[C@H]2CC[C@@]1(C)[C@@H](O)[C@H]2C(=O)O", "pKa": 2.05}, {"smiles": "O=C/C(O)=C/O", "pKa": 5.03}, {"smiles": "Cn1cnc(/N=N/O)n1", "pKa": 5.48}, {"smiles": "N#CC(C#N)=NNc1ccc([N+](=O)[O-])cc1Cl", "pKa": 4.15}, {"smiles": "O=[N+]([O-])c1ccc2cc(O)ccc2c1", "pKa": 7.69}, {"smiles": "CCn1nnnc1CC(=O)O", "pKa": 2.85}, {"smiles": "O=S(O)CCCc1ccccc1", "pKa": 2.05}, {"smiles": "CCCP(=O)(CCC)CCC", "pKa": 12.2}, {"smiles": "Fc1cc(F)c(F)c(S)c1F", "pKa": 2.75}, {"smiles": "[NH3+]CCc1ccccc1O", "pKa": 9.19}, {"smiles": "C#CCC(=O)O", "pKa": 3.31}, {"smiles": "Cc1c(Cn2cc[nH+]c2)oc2ccc(C(=O)O)cc12", "pKa": 3.91}, {"smiles": "O=C(O)c1cccc(-c2nnn[nH]2)c1", "pKa": 3.74}, {"smiles": "Cc1cc([O-])ccc1O", "pKa": 11.8}, {"smiles": "CC(=S)Nc1ccc([N+](=O)[O-])cc1", "pKa": 9.89}, {"smiles": "CC(C)(C)O", "pKa": 17}, {"smiles": "O=[N+]([O-])c1ccc([O-])c(O)c1", "pKa": 10.9}, {"smiles": "Nc1nc(N)[nH+]c(O)n1", "pKa": 4.5}, {"smiles": "Cc1ccc(O)c(C)c1", "pKa": 10.6}, {"smiles": "CCOC(=O)/C(=N/O)c1ccccc1", "pKa": 8.95}, {"smiles": "Cc1ccc(S(=O)(=O)N[C@@H](CCC(N)=O)C(=O)[O-])cc1", "pKa": 11.8}, {"smiles": "COc1ccccc1/C=C/C(=O)O", "pKa": 4.57}, {"smiles": "C[C@H]([NH3+])C(=O)N[C@@H](Cc1c[nH]c[nH+]1)C(=O)O", "pKa": 2.73}, {"smiles": "CC(=O)CC(=O)c1ccc[se]1", "pKa": 8.55}, {"smiles": "O=C1COC(=O)N1", "pKa": 5.84}, {"smiles": "C[S+](C)CC(=O)c1ccccc1", "pKa": 8.6}, {"smiles": "CC1(C)OC(=O)CC(=O)O1", "pKa": 5.15}, {"smiles": "COc1cccc(C)c1C(=O)O", "pKa": 3.46}, {"smiles": "CCCCN(C(=O)c1cc([N+](=O)[O-])ccc1O)c1ccc(/N=N/c2ccc3c(c2)OCCOCCOCCOCCOCCO3)cc1", "pKa": 6.3}]}, {"conditions": "basic group", "values": [{"smiles": "CN[C@H]1C(C)[C@@H]1NC", "note": "(some centres undefined)", "pKa": 9.03}, {"smiles": "CN1CCC2Cc3ccc(O)c(O)c3C3CCCC1C23", "note": "(centres undefined)", "pKa": 7.58}, {"smiles": "COc1ccc(-c2cc3ccncc3[nH]2)c(OC)c1", "pKa": 8.29}, {"smiles": "O=C(NNc1ccc(Br)cc1)c1ccncc1", "pKa": 4.03}, {"smiles": "c1ccc2cc(NCC[NH2+]c3ccc4ccccc4c3)ccc2c1", "pKa": 1.8}, {"smiles": "C=CCN(CC=C)CC=C", "pKa": 8.31}, {"smiles": "O=Cc1ccncc1O", "pKa": 4.05}, {"smiles": "Sc1cccnc1", "pKa": 2.28}, {"smiles": "Nc1cccc(C(=O)[O-])c1", "pKa": 4.7}]}]}
